Assay results published in the supplement of paper PMC10307832.

Tests used:
Test in all cases: relative viability (nuclei count vs DMSO), 5 days (fraction); higher = more cells survive
[1] = compound: Cc1cnc(CNC(=O)c2c(=O)c3ccc(N4CCCN(C)CC4)nc3n3c2sc2ccccc23)cn1 [CX-5461] + Cc1nc(Nc2ncc(C(=O)Nc3c(C)cccc3Cl)s2)cc(N2CCN(CCO)CC2)n1 [Dasatinib] (partner 0.075 µM)
Outline: (§1)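 Relative viability was taken as the ratio of nuclei in treated wells to nuclei in vehicle wells. Lung cancer cell lines in 1536-well plates received compounds by pin tool one day after seeding, either one drug alone or a fixed anchor-drug dose plus five library-drug doses (not always all listed) in √10 steps. Nuclei were counted on 4× images after 5 days of treatment, and values are medians of duplicate plates.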

[2] = compound: O=C(Nc1cc(C(F)(F)F)cc(C(F)(F)F)c1)c1cc(Cl)ccc1O [IMD-0354] + CS(=O)(=O)CCNCc1ccc(-c2ccc3ncnc(Nc4ccc(OCc5cccc(F)c5)c(Cl)c4)c3c2)o1 [Lapatinib] (partner 2 µM)
Outline: as §1

[3] = compound: Cc1cnc(CNC(=O)c2c(=O)c3ccc(N4CCCN(C)CC4)nc3n3c2sc2ccccc23)cn1 [CX-5461] + C[C@]1(O)C[C@@H](c2nc(-c3ccc4ccc(-c5ccccc5)nc4c3)c3c(N)nccn32)C1 [Linsitinib] (partner 1 µM)
Outline: as §1

[4] = compound: Cc1cnc(CNC(=O)c2c(=O)c3ccc(N4CCCN(C)CC4)nc3n3c2sc2ccccc23)cn1 [CX-5461] + Nc1nc2[nH]cc(CCc3ccc(C(=O)N[C@@H](CCC(=O)O)C(=O)O)cc3)c2c(=O)[nH]1 [Pemetrexed] (partner 0.2 µM)
Outline: as §1

Cell Line | relative viability ([1]; first compound 0.01 µM) | relative viability ([1]; first compound 0.03162 µM) | relative viability ([1]; first compound 0.1 µM) | relative viability ([1]; first compound 0.3162 µM) | relative viability ([1]; first compound 1 µM) | relative viability ([2]; first compound 0.04 µM) | relative viability ([2]; first compound 0.1265 µM) | relative viability ([2]; first compound 0.4 µM) | relative viability ([2]; first compound 1.265 µM) | relative viability ([2]; first compound 4 µM) | relative viability ([3]; first compound 0.01 µM) | relative viability ([3]; first compound 0.03162 µM) | relative viability ([3]; first compound 0.1 µM) | relative viability ([3]; first compound 0.3162 µM) | relative viability ([3]; first compound 1 µM) | relative viability ([4]; first compound 0.01 µM) | relative viability ([4]; first compound 0.03162 µM) | relative viability ([4]; first compound 0.1 µM) | relative viability ([4]; first compound 0.3162 µM) | relative viability ([4]; first compound 1 µM)
NCI-H1734 | 0.472 | 0.543 | 0.471 | 0.405 | 0.25 | 1.23 | 1.07 | 0.493 | 0.232 | 0.218 | 1.01 | 0.97 | 0.901 | 0.772 | 0.868 | 0.404 | 0.435 | 0.419 | 0.39 | 0.432
HOP-62 | 0.724 | 0.661 | 0.704 | 0.675 | 0.489 | 0.974 | 1.13 | 0.603 | 0.662 | 0.0827 | 1.08 | 0.813 | 0.922 | 0.858 | 0.997 | 0.236 | 0.384 | 0.297 | 0.28 | 0.321
LOU-NH91 | 0.677 | 0.511 | 0.602 | – | 0.532 | 0.85 | 0.804 | 0.337 | 0.226 | 0.222 | 1 | 1.04 | 0.999 | 0.715 | 0.842 | 0.35 | 0.377 | 0.409 | 0.354 | 0.344
NCI-H2228 | 0.399 | 0.465 | 0.28 | 0.309 | 0.0755 | 1.23 | 1 | 0.632 | 0.306 | 0.241 | 0.736 | 0.975 | 0.416 | 0.718 | 0.282 | 0.355 | 0.369 | 0.312 | 0.305 | 0.182
PC-14 | 0.312 | 0.251 | 0.295 | 0.272 | 0.0972 | 0.291 | 0.384 | 0.197 | 0.347 | 0.109 | 0.954 | 0.992 | 1.03 | 0.987 | 0.878 | 0.134 | 0.134 | 0.118 | 0.157 | 0.113
NCI-H1437 | 0.434 | 0.373 | 0.431 | 0.32 | 0.368 | 0.86 | 0.69 | 0.317 | 0.122 | 0.194 | 1.17 | 1.11 | – | 0.991 | 0.763 | 0.31 | 0.307 | 0.268 | 0.307 | 0.29
NCI-H460 | 0.554 | 0.435 | 0.263 | 0.516 | 0.0464 | 1.08 | 0.679 | 0.178 | 0.0562 | 0.0153 | 1.02 | 0.713 | 0.133 | 0.537 | 0.0178 | 0.0543 | 0.0602 | 0.0575 | 0.0623 | 0.0755
NCI-H1666 | 0.786 | 0.802 | 0.597 | 0.757 | 0.591 | 0.631 | 0.617 | 0.452 | 0.176 | 0.167 | 0.787 | 0.982 | – | 0.82 | 0.459 | 0.854 | 0.848 | 1.01 | 0.828 | 0.769
NCI-H1651 | 0.378 | 0.254 | – | 0.178 | 0.112 | 0.904 | 0.803 | 0.402 | 0.136 | 0.131 | – | 0.755 | – | 0.714 | 0.11 | 0.551 | 0.6 | 0.546 | 0.623 | 0.18
NCI-H1755 | 0.412 | 0.476 | 0.461 | 0.422 | 0.34 | 1.31 | 1.1 | 0.598 | 0.303 | 0.197 | 0.983 | 1.05 | 0.968 | 0.993 | 1.01 | 0.389 | 0.507 | 0.427 | 0.399 | 0.488
NCI-H661 | 1.06 | 0.863 | 0.9 | – | 0.4 | 0.466 | 0.458 | 0.477 | 0.538 | 0.273 | 0.593 | 0.721 | 0.87 | – | 0.433 | 0.928 | 0.902 | 0.855 | 0.802 | 0.722
HARA | 0.308 | 0.246 | 0.213 | – | 0.213 | 0.792 | 0.752 | 0.432 | 0.11 | 0.198 | 0.953 | 1.04 | 0.98 | 0.772 | 0.966 | 0.204 | 0.272 | 0.27 | 0.208 | 0.253
NCI-H596 | 0.613 | 0.639 | 0.596 | 0.623 | 0.473 | 0.989 | 1.22 | 0.823 | 1.07 | 0.474 | 1.11 | 1.06 | 1.21 | 1.15 | 1.1 | 0.47 | 0.45 | 0.523 | 0.504 | 0.48
NCI-H1563 | 0.461 | 0.426 | 0.464 | 0.444 | 0.444 | 1.18 | 1.01 | 0.903 | 0.44 | 0.415 | 1.19 | 1.14 | 0.894 | 0.995 | 0.664 | 0.81 | 0.747 | 0.908 | 0.687 | 0.651
NCI-H23 | 0.75 | 0.892 | 0.834 | 1.03 | 0.5 | 0.996 | 1.14 | 0.475 | 0.183 | 0.237 | 0.612 | 0.554 | 0.709 | 0.529 | 0.451 | 0.524 | 0.862 | 0.7 | 0.71 | 0.508
LCLC-97TM1 | 0.755 | 0.873 | 0.791 | – | 0.701 | – | 0.792 | 0.419 | 0.27 | 0.144 | 0.176 | 0.205 | 0.168 | – | 0.212 | 0.178 | 0.193 | 0.196 | 0.103 | 0.155
EPLC-272H | 0.327 | 0.364 | 0.387 | – | 0.412 | 1.32 | 0.944 | 0.618 | 0.716 | 0.205 | 1.3 | 1.27 | 1.09 | – | 1.06 | 0.319 | 0.382 | 0.367 | 0.402 | 0.377
NCI-H1915 | 0.292 | 0.358 | 0.301 | 0.299 | 0.297 | 0.869 | 0.941 | 0.605 | 0.761 | 0.192 | 1.1 | 1.13 | 1.12 | 1.12 | 1.16 | 0.536 | 0.509 | 0.487 | 0.496 | 0.495
NCI-H2405 | 0.224 | 0.204 | 0.197 | 0.205 | 0.193 | 1.38 | 1.24 | 0.69 | 0.243 | 0.202 | 1.03 | 0.898 | 0.993 | 0.897 | 0.757 | 1.06 | 0.892 | 1 | 1.02 | 0.911
NCI-H322M | 0.249 | 0.243 | 0.267 | 0.219 | 0.267 | 0.651 | 0.584 | 0.57 | 0.802 | 0.342 | 0.844 | 0.911 | 0.944 | – | 0.9 | 0.568 | 0.558 | 0.708 | 0.567 | 0.62
NCI-H358 | 0.146 | 0.148 | 0.176 | 0.0999 | 0.12 | 0.541 | 0.441 | 0.413 | 0.273 | 0.192 | 0.817 | 0.748 | 0.345 | 0.314 | 0.304 | 0.159 | 0.157 | 0.165 | 0.173 | 0.156
NCI-H1793 | 0.347 | 0.409 | 0.368 | – | 0.343 | 0.651 | 0.613 | 0.347 | 0.238 | 0.323 | 1.05 | 0.913 | 0.941 | 0.913 | 0.752 | 1.17 | 1.21 | 0.92 | 0.706 | 0.802
SK-MES-1 | 0.339 | 0.387 | 0.397 | 0.344 | 0.198 | 0.434 | 0.528 | 0.377 | 0.369 | 0.236 | 1.16 | 1.12 | 1.1 | 1.11 | 0.999 | 0.95 | 0.988 | 0.888 | 0.955 | 0.546
NCI-H838 | 0.283 | 0.292 | 0.38 | 0.241 | 0.243 | 1.14 | 0.855 | 0.399 | 0.305 | 0.261 | 1.1 | 1.05 | 1.08 | 0.847 | 0.859 | 0.251 | 0.248 | 0.244 | 0.232 | 0.241
CAL-12T | 0.521 | 0.356 | 0.329 | 0.39 | 0.205 | 0.611 | 0.665 | 0.533 | 0.4 | 0.259 | 0.874 | 1.05 | 0.843 | 0.868 | 0.622 | 1.29 | 1.29 | 1.09 | 1.1 | 0.86
